Structures are written as SMILES. Structures can show the parent of a compound that is named as a salt.

The assay has as its target T1, HIV integrase (Human immunodeficiency virus type 1 group M subtype B, UniProt P12497, F1332H).
T1 construct: HIV integrase full length gene; made in house; host or cells: Escherichia coli BL21(DE3), plasmid pET21a-INH
The assay is described as follows: Determination of enzyme (HIV integrase) inhibitory activity. The settings on record: recombinant HIV integrase (F185H), strand transfer ELISA, absorbance at 450 nm. The assay is classed as biochemical. In a few lines: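 Full-length integrase with F185H, expressed in E. coli and purified, was reacted for 60 min at 37 °C with compound and biotinylated donor DNA bound to streptavidin plates. Target DNA was added for 10 min, then anti-digoxigenin-peroxidase detection at A450; IC50 from % inhibition versus enzyme-free blank.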
On the technique in general: In an ELISA, binding on a coated surface is turned into a signal by an enzyme label.

For orientation: IC50 means the midpoint of a concentration-inhibition curve. For the molecule `CC(C)CC(=O)c1cn2ccn(Cc3ccc(F)cc3)c(=O)c2c(O)c1=O` [Example 387, 2-(4-fluorobenzyl)-9-hydroxy-7-(3-methylbutyryl)-2H-pyrido[1,2-a]pyrazine-1,8-dione hydrochloride], the IC50 lay in the range of 10 to 100 nM.

Consider `O=c1ccn2ccn(Cc3ccc(F)cc3)c(=O)c2c1O` [Example 250, 2-(4-fluorobenzyl)-9-hydroxy-2H-pyrido[1,2-a]pyrazine-1,8-dione hydrochloride], for which the IC50 was 10 to 100 nM.

For the molecule `COc1ccc(CN2CCn3ccc(=O)c(O)c3C2=O)cc1Cl` [Example 73, 2-(3-chloro-4-methoxybenzyl)-9-hydroxy-3,4-dihydro-2H-pyrido[1,2-a]pyrazine-1,8-dione], the IC50 was in the range of 10 to 100 nM.

Consider `COCc1cc(=O)c(O)c2n1CCN(Cc1ccc(Cl)c(Cl)c1)C2=O` [Example 23, 2-(3,4-dichlorobenzyl)-9-hydroxy-6-methoxymethyl-3,4-dihydro-2H-pyrido[1,2-a]pyrazine-1,8-dione], for which the concentration for half-maximal inhibition (IC50) was in the range of 10 to 100 nM.

As to `CC(C)C(=O)c1cn2ccn(Cc3ccc(F)cc3)c(=O)c2c(O)c1=O` [Example 345, 2-(4-fluorobenzyl)-9-hydroxy-7-isobutyryl-2H-pyrido[1,2-a]pyrazine-1,8-dione hydrochloride], the IC50 was under 10 nM.

Consider `COC(=O)Cc1cn2ccn(Cc3cccc(Cl)c3)c(=O)c2c(O)c1=O` [Example 187, methyl [2-(3-chlorobenzyl)-9-hydroxy-1,8-dioxo-1,8-dihydro-2H-pyrido[1,2-a]pyrazin-7-yl]acetate], for which the IC50 fell in the range of 10 to 100 nM.

As to `CC(C)(C)C(O)Cc1cc(=O)c(O)c2n1CCN(Cc1ccc(F)cc1)C2=O` (centres unmarked) [Example 422, 2-(4-fluorobenzyl)-9-hydroxy-6-(2-hydroxy-3,3-dimethylbutyl)-3,4-dihydro-2H-pyrido[1,2-a]pyrazine-1,8-dione hydrochloride], the IC50 is 10 to 100 nM.

For `CC(C)(C)C(=O)c1cn2c(c(O)c1=O)C(=O)N(Cc1cccc(Cl)c1F)CC2` [Example 367, 2-(3-chloro-2-fluorobenzyl)-7-(2,2-dimethylpropionyl)-9-hydroxy-3,4-dihydro-2H-pyrido[1,2-a]pyrazine-1,8-dione hydrochloride], the IC50 fell in the range of 10 to 100 nM.

With `CCCCC1Cn2ccc(=O)c(O)c2C(=O)N1Cc1ccc(Cl)c(Cl)c1` (centres unmarked) [Example 26, 3-butyl-2-(3,4-dichlorobenzyl)-9-hydroxy-3,4-dihydro-2H-pyrido[1,2-a]pyrazine-1,8-dione], the IC50 lay within 10 to 100 nM.

As for `O=C1c2c(O)c(=O)c(-c3ccccn3)cn2CCN1Cc1ccc(F)cc1` [Example 363, 2-(4-fluorobenzyl)-9-hydroxy-7-(pyridin-2-yl)-3,4-dihydro-2H-pyrido[1,2-a]pyrazine-1,8-dione hydrochloride], the IC50 is 10 to 100 nM.

As for `CSCc1cc(=O)c(O)c2n1CCN(Cc1ccc(Cl)c(Cl)c1)C2=O` [Example 30, 2-(3,4-dichlorobenzyl)-9-hydroxy-6-methylsulfanylmethyl-3,4-dihydro-2H-pyrido[1,2-a]pyrazine-1,8-dione], the IC50 was 10 to 100 nM.

As for `COc1ccc(-c2cn3ccn(Cc4cccc(Cl)c4)c(=O)c3c(O)c2=O)cc1` [Example 133, 2-(3-chlorobenzyl)-9-hydroxy-7-(4-methoxyphenyl)-2H-pyrido[1,2-a]pyrazine-1,8-dione hydrochloride], the IC50 was under 10 nM.

For `CCCCNC(=O)c1cn2ccn(Cc3cccc(Cl)c3)c(=O)c2c(O)c1=O` [Example 172, N-butyl-2-(3-chlorobenzyl)-9-hydroxy-1,8-dioxo-1,8-dihydro-2H-pyrido[1,2-a]pyrazine-7-carboxamide], the IC50 was under 10 nM.

On to `O=C1c2c(O)c(=O)c(-c3ccccn3)cn2CCN1Cc1ccc(F)c(Cl)c1` [Example 327, 2-(3-chloro-4-fluorobenzyl)-9-hydroxy-7-(pyridin-2-yl)-3,4-dihydro-2H-pyrido[1,2-a]pyrazine-1,8-dione hydrochloride], for which the IC50 was under 10 nM.

Take `CC(C)C(=O)Nc1cn2c(c(O)c1=O)C(=O)N(Cc1ccc(F)c(Cl)c1)CC2` [Example 349, N-[2-(3-chloro-4-fluorobenzyl)-9-hydroxy-1,8-dioxo-1,3,4,8-tetrahydro-2H-pyrido[1,2-a]pyrazin-7-yl]isobutyramide]: the IC50 was 10 to 100 nM.

On to `O=C1c2c(O)c(=O)c(-c3nccs3)cn2CCN1CCCc1ccc(Cl)c(F)c1` [Example 313, 2-[3-(4-chloro-3-fluorophenyl)propyl]-9-hydroxy-7-(thiazol-2-yl)-3,4-dihydro-2H-pyrido[1,2-a]pyrazine-1,8-dione], for which the 50% inhibitory concentration (IC50) was 10 to 100 nM.

For the molecule `CCC(C)(C)C(=O)c1cn2c(c(O)c1=O)C(=O)N(Cc1cccc(Cl)c1)CC2` [Example 362, 2-(3-chlorobenzyl)-7-(2,2-dimethylbutyryl)-9-hydroxy-3,4-dihydro-2H-pyrido[1,2-a]pyrazine-1,8-dione], the IC50 is 10 to 100 nM.

Turning to `O=C(Cc1ccc(F)cc1)Nc1cn2ccn(Cc3cccc(Cl)c3)c(=O)c2c(O)c1=O` [Example 275, N-[2-(3-chlorobenzyl)-9-hydroxy-1,8-dioxo-1,8-dihydro-2H-pyrido[1,2-a]pyrazin-7-yl]-2-(4-fluorophenyl)acetamide], the IC50 is under 10 nM.

With `O=c1ccn2ccn(CCOc3ccccc3Cl)c(=O)c2c1O` [Example 169, 2-[2-(2-chlorophenoxy)ethyl]-9-hydroxy-2H-pyrido[1,2-a]pyrazine-1,8-dione hydrochloride], the IC50 lay in the range of 100 to 1000 nM.

For the molecule `O=C1c2c(O)c(=O)ccn2CCN1Cc1ccccc1` [Example 44, 2-benzyl-9-hydroxy-3,4-dihydro-2H-pyrido[1,2-a]pyrazine-1,8-dione], the half-maximal inhibitory concentration (IC50) is 100 to 1000 nM.

In the case of `CC(C)CNc1cn2ccn(Cc3cccc(Cl)c3)c(=O)c2c(O)c1=O` [Example 283, 2-(3-chlorobenzyl)-9-hydroxy-7-isobutylamino-2H-pyrido[1,2-a]pyrazine-1,8-dione hydrochloride], the IC50 was in the range of 10 to 100 nM.

On to `O=c1ccn2ccn(CCCc3cc(Cl)cc(Cl)c3)c(=O)c2c1O` [Example 80, 2-[3-(3,5-dichlorophenyl)propyl]-9-hydroxy-2H-pyrido[1,2-a]pyrazine-1,8-dione], for which the half-inhibitory concentration (IC50) was in the range of 10 to 100 nM.

Take `O=C1c2c(O)c(=O)cc(COc3ccccc3)n2CCN1Cc1ccc(Cl)c(Cl)c1` [Example 41, 2-(3,4-dichlorobenzyl)-9-hydroxy-6-phenoxymethyl-3,4-dihydro-2H-pyrido[1,2-a]pyrazine-1,8-dione]: the half-inhibitory concentration (IC50) was 10 to 100 nM.

Regarding `O=C1c2c(O)c(=O)c(-c3nccs3)cn2CCN1Cc1cccc(Cl)c1F` [Example 292, 2-(3-chloro-2-fluorobenzyl)-9-hydroxy-7-(thiazol-2-yl)-3,4-dihydro-2H-pyrido[1,2-a]pyrazine-1,8-dione], the IC50 is under 10 nM.

For the molecule `CC(C)Oc1cc(Cl)ccc1CN1CCn2cc(-c3nccs3)c(=O)c(O)c2C1=O` [Example 358, 2-(4-chloro-2-isopropoxybenzyl)-9-hydroxy-7-(thiazol-2-yl)-3,4-dihydro-2H-pyrido[1,2-a]pyrazine-1,8-dione hydrochloride], the IC50 was 10 to 100 nM.

On to `O=c1c(-c2cccc(Cl)c2)cn2ccn(Cc3cccc(Cl)c3)c(=O)c2c1O` [Example 112, 2-(3-chlorobenzyl)-7-(3-chlorophenyl)-9-hydroxy-2H-pyrido[1,2-a]pyrazine-1,8-dione hydrochloride], for which the IC50 lay in the range of 10 to 100 nM.

For the molecule `CC(CCN1CCn2cc(-c3nccs3)c(=O)c(O)c2C1=O)c1ccccc1` (centres unmarked) [Example 351, 9-hydroxy-2-(3-phenylbutyl)-7-(thiazol-2-yl)-3,4-dihydro-2H-pyrido[1,2-a]pyrazine-1,8-dione hydrochloride], the IC50 was 10 to 100 nM.

With `CC(=O)Nc1cn2ccn(Cc3ccc(F)cc3)c(=O)c2c(O)c1=O` [Example 303, N-[2-(4-fluorobenzyl)-9-hydroxy-1,8-dioxo-1,8-dihydro-2H-pyrido[1,2-a]pyrazin-7-yl]acetamide], the half-inhibitory concentration (IC50) was 10 to 100 nM.

On to `CC(=O)Nc1cn2ccn(Cc3cccc(Cl)c3F)c(=O)c2c(O)c1=O` [Example 325, N-[2-(3-chloro-2-fluorobenzyl)-9-hydroxy-1,8-dioxo-1,8-dihydro-2H-pyrido[1,2-a]pyrazin-7-yl]acetamide hydrochloride], for which the IC50 was in the range of 10 to 100 nM.

For `CC(C)N(C)C(=O)c1cc(=O)c(O)c2n1CCN(Cc1ccc(Cl)c(Cl)c1)C2=O` [Example 62, N-isopropyl-N-methyl-2-(3,4-dichlorobenzyl)-9-hydroxy-1,8-dioxo-1,3,4,8-tetrahydro-2H-pyrido[1,2-a]pyrazine-6-carboxamide], the concentration for half-maximal inhibition (IC50) fell in the range of 10 to 100 nM.

On to `CC(C)(C)C(=O)Nc1cn2ccn(Cc3cccc(Cl)c3)c(=O)c2c(O)c1=O` [Example 276, N-[2-(3-chlorobenzyl)-9-hydroxy-1,8-dioxo-1,8-dihydro-2H-pyrido[1,2-a]pyrazin-7-yl]-2,2-dimethylpropionamide], for which the IC50 is under 10 nM.

Turning to `CNC(=O)CNC(=O)c1cn2ccn(Cc3cccc(Cl)c3)c(=O)c2c(O)c1=O` [Example 195, N-methylcarbamoylmethyl-2-(3-chlorobenzyl)-9-hydroxy-1,8-dioxo-1,8-dihydro-2H-pyrido[1,2-a]pyrazine-7-carboxamide], the 50% inhibitory concentration (IC50) was in the range of 10 to 100 nM.

For `CS(=O)(=O)Cc1cc(=O)c(O)c2n1CCN(Cc1ccc(Cl)c(Cl)c1)C2=O` [Example 31, 2-(3,4-dichlorobenzyl)-9-hydroxy-6-methanesulfonylmethyl-3,4-dihydro-2H-pyrido[1,2-a]pyrazine-1,8-dione], the IC50 was in the range of 10 to 100 nM.

Consider `O=c1c(-c2ccccc2Cl)cn2ccn(Cc3cccc(Cl)c3)c(=O)c2c1O` [Example 114, 2-(3-chlorobenzyl)-7-(2-chlorophenyl)-9-hydroxy-2H-pyrido[1,2-a]pyrazine-1,8-dione hydrochloride], for which the IC50 was under 10 nM.

`O=c1c(-c2ccncn2)cn2ccn(Cc3ccc(F)cc3)c(=O)c2c1O` [Example 347, 2-(4-fluorobenzyl)-9-hydroxy-7-(pyrimidin-4-yl)-2H-pyrido[1,2-a]pyrazine-1,8-dione]: the concentration for half-maximal inhibition (IC50) was under 10 nM.
